Results reported in patent US9427426B2 (priority 2008, dated 2016).
“And” between values parts separate entries of the source, which are not always exact repeats. Equal values may be shown once.

What was measured:
rats = test: Example 3: evaluation of erdosteine formulation toxicity i.v. (lots 10-13); format: in vivo, Wistar rats; details: 10 animals
Description: Have been introduced 4 lot of 10 animals (5 males and 5 females) as follows: • Lot 10—intoxicated with 3500 mg/kg erdosteine i.v., 4.37 g erdosteine+1.48 g sodium hydrogen carbonate dissolved in 25 ml, administrated 2 ml/100 g of animal weight • Lot 11—intoxicated with 4000 mg/kg erdosteine i.v. as in lot 10, administrated 2.28 ml/100 g of animal weight • Lot 12—intoxicated with 4500 mg/kg erdosteine i.v. 4.5 g dissolved in 20 ml, administrated 2 ml/100 g of animal weight. Dissolution volume was choose in order to keep a similar injection volume. • Lot 13—intoxicated with 5500 mg/kg erdosteine i.v. as in lot 12, administrated 2.44 ml/100 g of animal weight Statistical Analysis
It has been evaluated toxicity of formula 350 mg erdosteine+118 mg sodium hydrogen carbonate (formula that has shown the best stability data).

[1] = tested on: rats intoxicated with paracetamol; test: Example 4: erdosteine i.v. vs NAC i.v. in rats intoxicated with paracetamol; format: in vivo, Wistar rats
Description: Experiment has been carried on in parallel with experiment of example 3 and results of animals not intoxicated not treated (lot1) have been used as reference.
3. […] NAC has been dissolved in bidistilled water.
Animals have been monitored as described in example 3.
Mortality has been recorded.

[2] = tested on: rats intoxicated with lead (lead acetate); test: Example 5: erdosteine prophylaxis per os plus i.v. treatment in lead intoxication; format: in vivo, rats Wistar; parameters: RBC / ALT / Hct / MCH / Hb / WBC / Urea / Uric acid / AST: unit not given here
Description: The experiment has been structured for subjects that at a certain moment might be at higher risk to be intoxicated, for professional or other reasons. After intoxication the animals have been treated i.v.
Experiment has been carried out in parallel with example 3. Whatever not specified is identical with example 3.
Lot 14 One lot of 30 rats Wistar (15 males and 15 females) have been introduced in the experiment.
At day −2, day −1 and day 0 the animals have been administered 300 mg/kg erdosteine per os. At day 0, four hours after administration of erdosteine, the animals have been intoxicated with lead as described in example 3. After lead intoxications animals have been treated with erdosteine 350 mg/kg with the same protocol as described in example 3. […] Results have been compared with lot 2 since the experiments were carried out in parallel and results can be compared.

rat = details: cited from earlier work
[3] = tested on: rat intoxicated with lead (lead acetate); test: Example 3: erdosteine i.v. vs BAL+EDTA (TT) and association in rats intoxicated with lead; details: erdosteine 350 mg/kg i.v.
Description: The animals have been randomly divided in 6 lots.
2. […] Dosage administered is similar to the maximum possible dosage in man.
4. Erdosteine has been administered first, immediately after intoxication, followed rapidly by BAL and then EDTA by more operators in sequence, in order to simulate the situation in man when it is possible to administer i.v. in perfusion and at the same time i.m.
Mortality has been recorded. […] After 7 days urine have been taken through trans-vesica punction.
Analysis of mortality have been made using Chi square test.
Results with p<0.05 have been considered statistically significant.
Biochemical tests have been made with Refloton 2000, hematological tests with Hemastar 4, urine summary with Urilux, Pb in urine with GC-MS Varian

[4] = 3500 mg/kg erdosteine i.v. (lot 10)
[5] = 4000 mg/kg erdosteine i.v. (lot 11)
[6] = 4500 mg/kg erdosteine i.v. (lot 12), solution not perfectly clear
[7] = 5500 mg/kg erdosteine i.v. (lot 13), solution not perfectly clear
[8] = paracetamol […] per os, erdosteine 350 mg/kg i.v. or NAC 114 mg/kg i.v. once a day for 7 days, 30 animals/lot
[9] = paracetamol intoxicated, erdosteine 350 mg/kg i.v. or NAC 114 mg/kg i.v., 7 days
[10] = survivors at 7 days, paracetamol intoxicated, erdosteine 350 mg/kg i.v. or NAC 114 mg/kg i.v.
[11] = lot 14: erdosteine 300 mg/kg per os at day -2, -1, 0, then lead acetate 4665 mg/kg per os and erdosteine 350 mg/kg i.v. once a day for 7 days, 30 rats
[12] = lot 14 survivors day 7, prophylaxis per os + Pb intoxication + erdosteine 350 mg/kg i.v.
[13] = lot 14 day 0 before intoxication, after erdosteine 300 mg/kg per os at day -2, -1, 0
[14] = Pb intoxicated (lead acetate 4665 mg/kg per os), BAL 25.2 mg/kg + EDTA 30 mg/kg i.m. (TT) or both, once a day for 7 days, 30 animals/lot
[15] = survivors after 7 days, Pb intoxicated, TT (BAL+EDTA i.m.) or both
[16] = survivors after 7 days, Pb intoxicated, TT (BAL+EDTA i.m.) or both, listed as Erdosteine
[17] = urine at the end of period (7 days), Pb intoxicated, TT or both

Question: Which results are given for `O=C(O)CSCC(=O)NC1CCSC1=O` (stereo not drawn) [erdosteine, Erdosteine]?
Answer: Mortality % (rats; [4]): 10%; Total mortality (rats; [4]): 1/10; Mortality % (rats; [5]): 40%; Total mortality (rats; [5]): 4/10; Mortality % (rats; [6]): 70%; Total mortality (rats; [6]): 7/10; Mortality % (rats; [7]): 100%; Total mortality (rats; [7]): 10/10; Mortality percentual [1, 8]: 27%; Total mortality [1, 8]: 8/30; Renal aggression (urine summary), in words ([1]; paracetamol intoxicated, erdosteine 350 mg/kg i.v. or NAC 114 mg/kg i.v.): antagonized; Urine summary: Bil. [1, 9]: 1 mg/dL; Urine summary: Chet [1, 9]: neg; Urine summary: Density [1, 9]: 1020; Urine summary: Erythrocyte [1, 9]: 25 µL⁻¹; Urine summary: Glucose [1, 9]: neg; Urine summary: Leuc [1, 9]: 10 µL⁻¹; Urine summary: Prot. [1, 9]: 50 mg/dL; Urine summary: UBG [1, 9]: 1 mg/dL; Urine summary: pH [1, 9]: 7; ALT [1, 10]: 165.4^2,3; AST [1, 10]: 45.2^2; HCT [1, 10]: 42.9^1; PLT [1, 10]: 749.8^2,3; RBC [1, 10]: 7.45^1; Urea [1, 10]: 55.2^2,3; Uric acid [1, 10]: 1.934^2,3; Mortality % [2, 11]: 20%; Total mortality [2, 11]: 6/30 ^2; ALT [2, 12]: 165.4^1,2; AST [2, 12]: 48.9^1,2; Hb [2, 12]: 17.12; Hct [2, 12]: 43.81; MCH [2, 12]: 23.12; PLT [2, 12]: 605; RBC [2, 12]: 7.446; Urea [2, 12]: 62.2^1,2; Uric acid [2, 12]: 2.71; WBC [2, 12]: 6.98; ALT [2, 13]: 166.2; AST [2, 13]: 36.2; Hb [2, 13]: 19.96; Hct [2, 13]: 47.45; MCH [2, 13]: 25.12; PLT [2, 13]: 793; RBC [2, 13]: 7.93; Urea [2, 13]: 54.86; Uric acid [2, 13]: 1.95; WBC [2, 13]: 4.90; LD50 per os (rat; per os, rat where given): 8750 mg/kg; LD50 i.v. (rat; rat, i.v.): > 3500 mg/kg; Mortality % [3, 14]: 37%; Total mortality [3, 14]: 11/30 and 11/30 ^1; Renal aggression (urine summary), in words ([3]; Pb intoxicated, TT or both): improvement compared with TT; Pb in urine of survivors at the end of period, mean values ([3]; Pb intoxicated, TT or both, once a day for 7 days): 164.6 mg/L; ALT [3, 15]: 159^2; AST [3, 15]: 57.2^3; Hb [3, 15]: 16.98; Hct [3, 15]: 42.9; MCH [3, 15]: 23.46; PLT [3, 15]: 574; RBC [3, 15]: 7.156; Urea [3, 15]: 69.4^3; Uric acid [3, 15]: 2.632; WBC [3, 15]: 6.16; ALT [3, 16]: 159^2,3; AST [3, 16]: 57.2; Hb [3, 16]: 16.98^3; PLT [3, 16]: 574^3; RBC [3, 16]: 7.156^1,3; Urea [3, 16]: 68.4; WBC [3, 16]: 6.16^3; Urine summary: Bil. [3, 17]: 3 mg/dL; Urine summary: Chet [3, 17]: 10 mg/dL; Urine summary: Density [3, 17]: 1020; Urine summary: Erythrocyte [3, 17]: 100 µL⁻¹; Urine summary: Glucose [3, 17]: 50 mg/dL; Urine summary: Leuc [3, 17]: 28 µL⁻¹; Urine summary: Prot. [3, 17]: 90 mg/dL; Urine summary: UBG [3, 17]: 1 mg/dL; Urine summary: pH [3, 17]: 6.5
